# Target: T1, BTK (Homo sapiens, UniProt Q06187)
# T1 construct: endogenous in cells; host or cells: Ramos cells
# Assay: BTK cell degradation in Ramos cells (total BTK ELISA)
# Type: cell-based
# Conditions: 16 h incubation, FastScan total BTK ELISA
# Description: Ramos cells are treated with compounds diluted in 0.1% DMSO, dilution is done according to the following protocol: (1) make 1000x stock solution in DMSO from 10 mM by 5-fold dilution, total 7 doses were included; (2) make 10x solution in cell culture medium by transferring 1 ul 1000x stock solution into 99 ul medium; (3) 11 ul of 10× solution is added to cells and incubate for 16 h.
# Cells in 96 well plate are harvested by centrifugation (1200 rpm), and wash once with ice-cold PBS. Then, 100 ul 1×cell extraction buffer is added in each well. The cells are placed on a shaker for 20 min at 4° C.; 5 ul lysate is transferred to 45 ul of 1×cell extraction buffer in ELISA plate, and 50 ul of the antibody cocktail is added in each well; seal the plate and incubate 1 hour at room temperature on a plate shaker; medium is discarded from the plate, tap the plated on a paper towel, wash 3×200 ul ELISA wash buffer; add 100 ul of TMB to each well and incubate the plate in the dark for 15 min at room temperature on a shaker; add 100 ul of STOP solution to each well; read absorbance at 450 nm. The BTK ELISA assay was performed using FastScan total BTK ELISA kit (Cell Signaling Cat #36609).
# T1 sequence (Q06187 whole entry): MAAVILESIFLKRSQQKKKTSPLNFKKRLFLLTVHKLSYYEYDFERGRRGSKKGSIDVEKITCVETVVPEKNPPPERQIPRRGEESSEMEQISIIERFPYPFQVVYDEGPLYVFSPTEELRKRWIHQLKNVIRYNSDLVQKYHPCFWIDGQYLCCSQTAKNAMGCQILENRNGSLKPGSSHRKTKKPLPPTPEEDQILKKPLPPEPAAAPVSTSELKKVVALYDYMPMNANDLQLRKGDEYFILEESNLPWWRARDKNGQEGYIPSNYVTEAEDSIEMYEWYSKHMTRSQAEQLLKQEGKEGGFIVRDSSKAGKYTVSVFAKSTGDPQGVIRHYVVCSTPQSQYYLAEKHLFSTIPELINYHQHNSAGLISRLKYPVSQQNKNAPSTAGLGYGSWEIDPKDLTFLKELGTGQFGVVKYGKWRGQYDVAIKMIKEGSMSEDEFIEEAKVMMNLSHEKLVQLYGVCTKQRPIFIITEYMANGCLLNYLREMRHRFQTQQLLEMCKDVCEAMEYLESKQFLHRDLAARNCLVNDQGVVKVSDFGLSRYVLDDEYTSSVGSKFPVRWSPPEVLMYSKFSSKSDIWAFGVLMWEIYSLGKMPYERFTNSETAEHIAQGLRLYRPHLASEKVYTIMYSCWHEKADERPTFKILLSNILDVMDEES
row,DC50 [nM],SMILES
1,1890,"NC(=O)c1c(-c2ccc(Oc3ccccc3)cc2)nn2c1NCC[C@H]2C1CCN(C(=O)CCCNC(=O)COCCOCCOCCOCCNc2cccc3c2C(=O)N(C2CCC(=O)NC2=O)C3=O)CC1 (stereo partly drawn) [Example 34, (7S)-7-(1-(1-((2-(2,6-dioxopiperidin-3-yl)-1,3-dioxoisoindolin-4-yl)amino)-14-oxo-3,6,9, 12-tetraoxa-15-azanonadecan-19-oyl)piperidin-4-yl)-2-(4-phenoxyphenyl)-4,5,6,7-tetrahydropyrazolo[1,5-a]pyrimidine-3-carboxamide]"
2,326,"NC(=O)c1c(-c2ccc(Oc3ccccc3)cc2)nn2c1NCC[C@H]2C1CCN(C(=O)COCCOCCNC(=O)CCCCN2CCN(c3ccc4c(c3)C(=O)N(C3CCC(=O)NC3=O)C4=O)CC2)CC1 (stereo partly drawn) [Example 35, (7S)-7-(1-(2-(2-(2-(5-(4-(2-(2,6-dioxopiperidin-3-yl)-1,3-dioxoisoindolin-5-yl)piperazin-1-yl)pentanamido)ethoxy)ethoxy)acetyl)piperidin-4-yl)-2-(4-phenoxyphenyl)-4,5,6,7-tetrahydropyrazolo[1,5-a]pyrimidine-3-carboxamide]"
3,120,"CN(CCOCCNc1cccc2c1C(=O)N(C1CCC(=O)NC1=O)C2=O)CCC(=O)N1CCC([C@@H]2CCNc3c(C(N)=O)c(-c4ccc(Oc5ccccc5)cc4)nn32)CC1 (stereo partly drawn) [Example 37, (7S)-7-(1-(3-((2-(2-((2-(2,6-dioxopiperidin-3-yl)-1,3-dioxoisoindolin-4-yl)amino)ethoxy)ethyl)(methyl)amino)propanoyl)piperidin-4-yl)-2-(4-phenoxyphenyl)-4,5,6,7-tetrahydropyrazolo[1,5-a]pyrimidine-3-carboxamide]"
4,371,"CN(CCNc1cccc2c1C(=O)N(C1CCC(=O)NC1=O)C2=O)CCC(=O)N1CCC([C@@H]2CCNc3c(C(N)=O)c(-c4ccc(Oc5ccccc5)cc4)nn32)CC1 (stereo partly drawn) [Example 38, (7S)-7-(1-(3-((2-((2-(2,6-dioxopiperidin-3-yl)-1,3-dioxoisoindolin-4-yl)amino)ethyl)(methyl)amino)propanoyl)piperidin-4-yl)-2-(4-phenoxyphenyl)-4,5,6,7-tetrahydropyrazolo[1,5-a]pyrimidine-3-carboxamide]"
5,74,"NC(=O)c1c(-c2ccc(Oc3ccccc3)cc2)nn2c1NCC[C@H]2C1CCN(C(=O)CCc2ccc(N3CCN(c4ccc5c(c4)C(=O)N(C4CCC(=O)NC4=O)C5=O)CC3)cc2)CC1 (stereo partly drawn) [Example 40, (7S)-7-(1-(3-(4-(4-(2-(2,6-dioxopiperidin-3-yl)-1,3-dioxoisoindolin-5-yl)piperazin-1-yl)phenyl)propanoyl)piperidin-4-yl)-2-(4-phenoxyphenyl)-4,5,6,7-tetrahydropyrazolo[1,5-a]pyrimidine-3-carboxamide]"
6,624,"NC(=O)c1c(-c2ccc(Oc3ccccc3)cc2)nn2c1NCC[C@H]2C1CCN(C(=O)COCCOCCNC(=O)CCCN2CCN(c3ccc4c(c3)C(=O)N(C3CCC(=O)NC3=O)C4=O)CC2)CC1 (stereo partly drawn) [Example 42, (7S)-7-(1-(2-(2-(2-(4-(4-(2-(2,6-dioxopiperidin-3-yl)-1,3-dioxoisoindolin-5-yl)piperazin-1-yl)butanamido)ethoxy)ethoxy)acetyl)piperidin-4-yl)-2-(4-phenoxyphenyl)-4,5,6,7-tetrahydropyrazolo[1,5-a]pyrimidine-3-carboxamide]"
7,> 10000,"NC(=O)c1c(-c2ccc(Oc3ccccc3)cc2)nn2c1NCC[C@H]2C1CCN(C2CCN(Cc3ccc(C(=O)NCCNc4cccc5c4C(=O)N(C4CCC(=O)NC4=O)C5=O)cc3)CC2)CC1 (stereo partly drawn) [Example 43, (7S)-7-(1′-(4-((2-((2-(2,6-dioxopiperidin-3-yl)-1,3-dioxoisoindolin-4-yl)amino)ethyl)carbamoyl)benzyl)-[1, 4′-bipiperidin]-4-yl)-2-(4-phenoxyphenyl)-4,5,6,7-tetrahydropyrazolo[1,5-a]pyrimidine-3-carboxamide]"
8,> 10000,"NC(=O)c1c(-c2ccc(Oc3ccccc3)cc2)nn2c1NCC[C@H]2C1CCN(C(=O)CCCc2ccc(N3CCN(c4ccc5c(c4)C(=O)N(C4CCC(=O)NC4=O)C5=O)CC3)cc2)CC1 (stereo partly drawn) [Example 44, (7S)-7-(1-(4-(4-(4-(2-(2,6-dioxopiperidin-3-yl)-1,3-dioxoisoindolin-5-yl)piperazin-1-yl)phenyl)butanoyl)piperidin-4-yl)-2-(4-phenoxyphenyl)-4,5,6,7-tetrahydropyrazolo[1,5-a]pyrimidine-3-carboxamide]"
9,382,"NC(=O)c1c(-c2ccc(Oc3ccccc3)cc2)nn2c1NCC[C@H]2C1CCN(C(=O)CCN2CCN(c3ccc(CNC(=O)CNc4cccc5c4CN(C4CCC(=O)NC4=O)C5=O)cc3)CC2)CC1 (stereo partly drawn) [Example 45, (7S)-7-(1-(3-(4-(4-((2-((2-(2,6-dioxopiperidin-3-yl)-1-oxoisoindolin-4-yl)amino)acetamido)methyl)phenyl)piperazin-1-yl)propanoyl)piperidin-4-yl)-2-(4-phenoxyphenyl)-4,5,6,7-tetrahydropyrazolo[1,5-a]pyrimidine-3-carboxamide]"
10,198,"CN(C/C=C/C(=O)N1CCC([C@@H]2CCNc3c(C(N)=O)c(-c4ccc(Oc5ccccc5)cc4)nn32)CC1)CCCCCNc1cccc2c1CN(C1CCC(=O)NC1=O)C2=O (stereo partly drawn) [Example 46, (7S)-7-(1-((E)-4-((5-((2-(2,6-dioxopiperidin-3-yl)-1-oxoisoindolin-4-yl)amino)pentyl)(methyl)amino)but-2-enoyl)piperidin-4-yl)-2-(4-phenoxyphenyl)-4,5,6,7-tetrahydropyrazolo[1,5-a]pyrimidine-3-carboxamide]"
11,315,"CN(C/C=C/C(=O)N1CCC([C@@H]2CCNc3c(C(N)=O)c(-c4ccc(Oc5ccccc5)cc4)nn32)CC1)CCCCCCNc1cccc2c1CN(C1CCC(=O)NC1=O)C2=O (stereo partly drawn) [Example 47, (7S)-7-(1-((E)-4-((6-((2-(2,6-dioxopiperidin-3-yl)-1-oxoisoindolin-4-yl)amino)hexyl)(methyl)amino)but-2-enoyl)piperidin-4-yl)-2-(4-phenoxyphenyl)-4,5,6,7-tetrahydropyrazolo[1,5-a]pyrimidine-3-carboxamide]"
12,> 10000,"CN(/C=C/C(=O)N1CCC([C@@H]2CCNc3c(C(N)=O)c(-c4ccc(Oc5ccccc5)cc4)nn32)CC1)CCNc1cccc2c1C(=O)N(C1CCC(=O)NC1=O)C2=O (stereo partly drawn) [Example 49, (7S)-7-(1-((E)-3-((2-((2-(2,6-dioxopiperidin-3-yl)-1,3-dioxoisoindolin-4-yl)amino)ethyl)(methyl)amino)acryloyl)piperidin-4-yl)-2-(4-phenoxyphenyl)-4,5,6,7-tetrahydropyrazolo[1,5-a]pyrimidine-3-carboxamide]"
13,> 10000,"CN(C/C=C/C(=O)N1CCC([C@@H]2CCNc3c(C(N)=O)c(-c4ccc(Oc5ccccc5)cc4)nn32)CC1)CCCCCCN1C(=O)CCC(N2C(=O)c3cccc(N)c3C2=O)C1=O (stereo partly drawn) [Example 50, (7S)-7-(1-((E)-4-((6-(3-(4-amino-1,3-dioxoisoindolin-2-yl)-2,6-dioxopiperidin-1-yl)hexyl)(methyl)amino)but-2-enoyl)piperidin-4-yl)-2-(4-phenoxyphenyl)-4,5,6,7-tetrahydropyrazolo[1,5-a]pyrimidine-3-carboxamide]"
14,> 10000,"CN(C/C=C/C(=O)N1CCC([C@@H]2CCNc3c(C(N)=O)c(-c4ccc(Oc5ccccc5)cc4)nn32)CC1)CCCCCCN1C(=O)CCC(N2Cc3c(N)cccc3C2=O)C1=O (stereo partly drawn) [Example 51, (7S)-7-(1-((E)-4-((6-(3-(4-amino-1-oxoisoindolin-2-yl)-2,6-dioxopiperidin-1-yl)hexyl)(methyl)amino)but-2-enoyl)piperidin-4-yl)-2-(4-phenoxyphenyl)-4,5,6,7-tetrahydropyrazolo[1,5-a]pyrimidine-3-carboxamide]"
15,144,"CN(C/C=C/C(=O)N1CCC([C@@H]2CCNc3c(C(N)=O)c(-c4ccc(Oc5ccccc5)cc4)nn32)CC1)CCOCCOCCOCCN1C(=O)CCC(N2Cc3c(N)cccc3C2=O)C1=O (stereo partly drawn) [Example 52, (7S)-7-(1-((E)-1-(3-(4-amino-1-oxoisoindolin-2-yl)-2,6-dioxopiperidin-1-yl)-12-methyl-3,6,9-trioxa-12-azahexadec-14-en-16-oyl)piperidin-4-yl)-2-(4-phenoxyphenyl)-4,5,6,7-tetrahydropyrazolo[1,5-a]pyrimidine-3-carboxamide]"
16,428,"CN(C/C=C/C(=O)N1CCC([C@@H]2CCNc3c(C(N)=O)c(-c4ccc(Oc5ccccc5)cc4)nn32)CC1)CCCN1C(=O)CCC(N2Cc3c(N)cccc3C2=O)C1=O (stereo partly drawn) [Example 54, (7S)-7-(1-((E)-4-((3-(3-(4-amino-1-oxoisoindolin-2-yl)-2,6-dioxopiperidin-1-yl)propyl)(methyl)amino)but-2-enoyl)piperidin-4-yl)-2-(4-phenoxyphenyl)-4,5,6,7-tetrahydropyrazolo[1,5-a]pyrimidine-3-carboxamide]"
17,382,"CN(C/C=C/C(=O)N1CCC([C@@H]2CCNc3c(C(N)=O)c(-c4ccc(Oc5ccccc5)cc4)nn32)CC1)CCOCCOCCN1C(=O)CCC(N2Cc3c(N)cccc3C2=O)C1=O (stereo partly drawn) [Example 55, (7S)-7-(1-((E)-4-((2-(2-(2-(3-(4-amino-1-oxoisoindolin-2-yl)-2,6-dioxopiperidin-1-yl)ethoxy)ethoxy)ethyl)(methyl)amino)but-2-enoyl)piperidin-4-yl)-2-(4-phenoxyphenyl)-4,5,6,7-tetrahydropyrazolo[1,5-a]pyrimidine-3-carboxamide]"

# Source: US20220281876A1, “DEGRADATION OF BRUTON'S TYROSINE KINASE (BTK) BY CONJUGATION OF BTK INHIBITORS WITH E3 LIGASE LIGAND AND METHODS OF USE” (BEIGENE, LTD., priority 2019, published 2022)
